Results published in patent publication US10899747B2, “Biaryl piperidine amide compounds and methods of use thereof” (Athenex, Inc., priority 2017, dated 2021).

The compounds below were run on IL-2 (assay: PHA-IL2 (cell activation and cytokine analysis)). Conditions: 50% inhibition concentration class.
Assay type: cell-based
Procedure, shortened: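 Cells were seeded in 96-well plates at 1.0-2.0×10^6 cells/ml in 150 ul of RPMI containing 0.5% fetal calf serum. Test compounds, at up to ≤20 uM, were preincubated with the cells for 30 minutes, then phytohemagglutinin (PHA) was added and cultures were stimulated for 24-48 hours at 37 degrees C./5% CO2. Supernatant IL-2 was then quantified by standard ELISA.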

`O=C(COc1ccccc1-c1ccc(F)cc1)N1CCC(CCc2ccc3c(c2)OCCO3)CC1` [Compound 294] and `O=C(COc1ccccc1-c1ccc(F)cc1)N1CCC(CCc2ccc3c(c2)OCO3)CC1` [Compound 164] fall in the same range of IC50: 1 to 10 µM for the first, 1 to 10 µM for the second.

First: COc1cccc(CCC2CCN(C(=O)COc3ccc(S(=O)(=O)NC(C)C)cc3-c3ccc(F)cc3O)CC2)c1 [Compound 389]
Second: N#Cc1ccc(OCC(=O)N2CCC(CCc3cccc(OC4CCCC4)c3)CC2)c(-c2ccc(F)cc2O)c1 [Compound 409]
The IC50 of the first is higher: 1 to 10 µM for the first, < 1 µM for the second. The second is the more potent here.

`COc1ncccc1-c1ccccc1OCC(=O)N1CCC(CCc2ccc3c(c2)OCO3)CC1` [Compound 191] and `Cc1ccccc1-c1ccccc1OCC(=O)N1CCC(CCc2ccc3c(c2)OCO3)CC1` [Compound 155] fall in the same range of IC50: 1 to 10 µM for the first, 1 to 10 µM for the second.

Compared with `O=C(COc1ccccc1-c1ccc2[nH]ncc2c1)N1CCC(CCc2ccc3c(c2)OCCO3)CC1` [Compound 293], `O=C(COc1ccccc1-c1ccc2cc[nH]c2c1)N1CCC(CCc2ccc3c(c2)OCCCO3)CC1` [Compound 343] is higher in IC50: < 1 µM for the first, 10 to 50 µM for the second.

`N#Cc1ccc(OCC(=O)N2CCC(CCc3cccc4ccccc34)CC2)c(-c2ccc(F)cc2O)c1` [Compound 401] and `CC(C)Oc1cccc(CCC2CCN(C(=O)COc3ccccc3-c3cc(C#N)ccc3O)CC2)c1` [Compound 441] cannot be ordered by IC50: < 1 µM for the first, < 1 µM for the second.

`CCc1ccc(OCC(=O)N2CCC(CCc3ccc4c(c3)OCO4)CC2)c(-c2ccc(F)cc2)c1` [Compound 273] and `CCc1ccc(-c2ccccc2OCC(=O)N2CCC(CCc3ccc4c(c3)OCO4)CC2)cc1` [Compound 156] fall in the same range of IC50: 1 to 10 µM for the first, 1 to 10 µM for the second.

`O=C(COc1ccccc1-c1ccccc1O)N1CCC(CCc2ccc3c(c2)OCCCO3)CC1` [Compound 233] and `O=C(COc1ccccc1-c1ccccc1)N1CCC(CCc2ccc3c(c2)OCCCO3)CC1` [Compound 208] cannot be ordered by IC50: < 1 µM for the first, < 1 µM for the second.

First: O=C(COc1ccccc1-c1ccc(O)cc1)N1CCC(CCc2ccc3c(c2)OCO3)CC1 [Compound 170]
Second: N#Cc1ccc(-c2ccccc2OCC(=O)N2CCC(CCc3ccc4c(c3)OCO4)CC2)cc1 [Compound 166]
The IC50 of the first is higher: 1 to 10 µM for the first, < 1 µM for the second. The second is the more potent here.

`CC1Oc2ccc(CCC3CCN(C(=O)COc4ccccc4-c4ccc(F)cc4)CC3)cc2OC1C` (stereo not drawn) [Compound 264] and `CC1Oc2ccc(CCC3CCN(C(=O)COc4ccccc4-c4ccccc4O)CC3)cc2OC1C` (stereo not drawn) [Compound 278] cannot be ordered by IC50: < 1 µM for the first, < 1 µM for the second.

`NC(=O)c1cccc(-c2ccccc2OCC(=O)N2CCC(CCc3ccc4c(c3)OCO4)CC2)c1` [Compound 162] and `C=C(C)c1cccc(-c2ccccc2OCC(=O)N2CCC(CCc3ccc4c(c3)OCO4)CC2)c1` [Compound 205] fall in the same range of IC50: 1 to 10 µM for the first, 1 to 10 µM for the second.

Compared with `O=C(COc1ccccc1-c1ccc(C(F)(F)F)cc1F)N1CCC(CCc2ccc3c(c2)OCO3)CC1` [Compound 237], `O=C(COc1ccccc1-c1ccc(C(F)(F)F)cc1O)N1CCC(CCc2ccc3c(c2)OCO3)CC1` [Compound 365] is higher in IC50: < 1 µM for the first, 1 to 10 µM for the second.

Compared with `O=C(COc1ccccc1-c1ccccc1F)N1CCC(CCc2ccc3c(c2)OCO3)CC1` [Compound 177], `Cc1ccc(F)c(-c2ccccc2OCC(=O)N2CCC(CCc3ccc4c(c3)OCO4)CC2)c1` [Compound 239] is lower in IC50: 1 to 10 µM for the first, < 1 µM for the second. The second is the more potent here.

`CC(C)Oc1ccc(CCC2CCN(C(=O)COc3ccccc3-c3ccc(C#N)cc3)CC2)cc1OC(C)C` [Compound 301] and `COC(=O)c1ccc(CCC2CCN(C(=O)COc3ccccc3-c3ccc(C#N)cc3)CC2)cc1` [Compound 290] cannot be ordered by IC50: < 1 µM for the first, < 1 µM for the second.

`O=C(COc1cccnc1-c1ccc2[nH]ncc2c1)N1CCC(CCc2ccncc2)CC1` [Compound 396] and `O=C(COc1cccnc1-c1ccc(F)nc1)N1CCC(CCc2ccc3c(c2)OCCCO3)CC1` [Compound 339] fall in the same range of IC50: 1 to 10 µM for the first, 1 to 10 µM for the second.

`CN1CC(NC(=O)c2ccc(OCC(=O)N3CCC(CCc4ccccc4)CC3)c(-c3ccc(C#N)cc3)c2)C1` [Compound 367] and `N#Cc1ccc(-c2cc(C(=O)O)ccc2OCC(=O)N2CCC(CCc3ccccc3)CC2)cc1` [Compound 315] fall in the same range of IC50: 1 to 10 µM for the first, 1 to 10 µM for the second.

`N#Cc1ccc(-c2cc(C#N)ccc2OCC(=O)N2CCC(CCc3ccc4c(c3)OCO4)CC2)cc1` [Compound 420] and `O=C(COc1ccccc1-c1ccc(C(F)(F)F)cc1)N1CCC(CCc2ccc3c(c2)OCO3)CC1` [Compound 203] cannot be ordered by IC50: < 1 µM for the first, < 1 µM for the second.

First: N#Cc1ccc(-c2cc(C#N)ccc2OCC(=O)N2CCC(C#Cc3cnccn3)CC2)cc1 [Compound 429]
Second: N#Cc1ccc(-c2cc(C(=O)NCc3ccccc3)ccc2OCC(=O)N2CCC(CCc3ccccc3)CC2)cc1 [Compound 366]
The IC50 of the first is higher: 1 to 10 µM for the first, < 1 µM for the second. The second is the more potent here.

First: Cn1ncc2cc(-c3ncccc3OCC(=O)N3CCC(CCc4cccc(OCCN5CCOCC5)c4)CC3)ccc21 [Compound 374]
Second: Cn1ccc2cc(-c3ncccc3OCC(=O)N3CCC(CCc4cccc(OCCN5CCOCC5)c4)CC3)ccc21 [Compound 380]
The IC50 of the first is higher: 10 to 50 µM for the first, 1 to 10 µM for the second. The second is the more potent here.

Compared with `C#CCOc1cccc(CCC2CCN(C(=O)COc3ccccc3-c3ccc(C(=O)c4ccccc4)cc3)CC2)c1` [Compound 416], `O=C(c1ccccc1)c1ccc(-c2ccccc2OCC(=O)N2CCC(CCc3ccc4c(c3)OCO4)CC2)cc1` [Compound 198] is lower in IC50: 1 to 10 µM for the first, < 1 µM for the second. The second is the more potent here.

`O=C(COc1ccccc1-c1cccnc1)N1CCC(CCc2ccc3c(c2)OCO3)CC1` [Compound 194] and `CC(C)COc1cccc(-c2ccccc2OCC(=O)N2CCC(CCc3ccc4c(c3)OCO4)CC2)c1` [Compound 245] fall in the same range of IC50: 1 to 10 µM for the first, 1 to 10 µM for the second.

`CC1CC(CCc2ccccc2)CCN1C(=O)COc1ccccc1-c1ccc(F)cc1O` (stereo not drawn) [Compound 303] and `O=C(COc1ccccc1-c1ccc(F)cc1)N1CCC(CCc2ccccc2)CC1` [Compound 270] fall in the same range of IC50: 1 to 10 µM for the first, 1 to 10 µM for the second.

`COc1cccc(CCC2CCN(C(=O)COc3cccnc3-c3ccc(C(F)(F)F)cc3O)CC2)c1` [Compound 363] and `O=C(COc1ccccc1-c1ccc(OC(F)(F)F)cc1)N1CCC(CCc2ccc3c(c2)OCO3)CC1` [Compound 178] fall in the same range of IC50: 1 to 10 µM for the first, 1 to 10 µM for the second.

First: N#Cc1ccc(-c2ncccc2OCC(=O)N2CCC(CCc3ccc4c(c3)OCCCO4)CC2)cn1 [Compound 342]
Second: O=C(COc1ccccc1-c1ccc(F)cc1O)N1CCC(CCc2ccc3c(c2)OCCO3)CC1 [Compound 296]
The IC50 of the first is higher: 10 to 50 µM for the first, < 1 µM for the second.

`N#Cc1ccc(-c2ccccc2CCC(=O)N2CCC(CCc3cc(F)cc(F)c3)CC2)cc1` [Compound 226] and `O=C(COc1ccccc1-c1ccccc1)N1CCC(CCc2ccc3c(c2)OC(F)(F)O3)CC1` [Compound 211] fall in the same range of IC50: 1 to 10 µM for the first, 1 to 10 µM for the second.

First: COc1ccc(CCC2CCN(C(=O)C(C)Oc3c(C)cccc3-c3ccccc3)CC2)cc1 (stereo not drawn) [Compound 234]
Second: CCCC(Oc1ccccc1-c1ccccc1)C(=O)N1CCC(CCc2ccc3c(c2)OCO3)CC1 (stereo not drawn) [Compound 154]
The IC50 of the first is lower: 1 to 10 µM for the first, 10 to 50 µM for the second.

Compound `O=C(COc1ccccc1-c1ccc(F)cc1O)N1CCC(CCc2ccc(OCCN3CCOCC3)cc2)CC1` [Compound 349] has an IC50 of 1 to 10 µM.

The compounds below were run on NFAT (assay: TCR-NFAT (luciferase-based reporter assay)). Conditions: Homo sapiens; 50% inhibition concentration class.
Assay type: cell-based
Experimental: Jurkat T cells are transiently transfected with a DNA plasmid encoding Firefly luciferase under the transcriptional control of an appropriate regulatory element that may include multimerized NFAT, AP-1, NFκB, or CREB binding sites. Cells are co-transfected with a DNA plasmid encoding Renilla luciferase under the transcriptional control of a constitutive regulatory element (e.g., HSV-TK promoter). 24 hours following transfection, cells are collected and re-seeded in 96-well plates at a final density of 1.0×10^6 cells/ml in 150 ul assay medium. Test compounds may be included at a final concentration of ≤20 uM and generally pre-incubated with cells for 30 minutes prior to stimulation. An appropriate stimulus is added, including but not limited to, a) phorbol myristate acetate (PMA) and ionomycin, or b) stimulatory antibodies to the TCR complex (e.g., anti-CD3ε) and CD28. Cell cultures are stimulated for 4-6 hours in a humidified incubator (37 degrees C./5% CO2). Cells are than lysed and the level of Firefly luciferase and Renilla Luciferase activity is determined using a standard assay (e.g., Promega's Dual Luciferase Reporter Assay System) and plate-reading luminometer. The ratio obtained by dividing activation induced Firefly luciferase activity by the constitutive Renilla luciferase activity is calculated and used as a quantitative measurement of cell activation.
Jurkat T cells were transiently transfected with a DNA plasmid encoding Firefly luciferase under the transcriptional control of an appropriate regulatory element that may include multimerized NFAT, AP-1, NFκB, or CREB binding sites. Cells were co-transfected with a DNA plasmid encoding Renilla luciferase under the transcriptional control of a constitutive regulatory element (e.g., HSV-TK promoter). 24 hours following transfection, cells were collected and re-seeded in 96-well plates at a final density of 1.0×10^6 cells/ml in 150 ul assay medium. Compound 413 was included at a final concentration of ≤20 uM and pre-incubated with cells for 30 minutes prior to stimulation. Mitogens PMA and ionomycin were added. Cell cultures were stimulated for 4-6 hours in a humidified incubator (37° C./5% CO2). Cells were then lysed and the level of Firefly luciferase and Renilla Luciferase activity was determined using a standard assay (e.g., Promega's Dual Luciferase Reporter Assay System) and plate-reading luminometer. The ratio obtained by dividing activation induced Firefly luciferase activity by the constitutive Renilla luciferase activity was calculated and used as a quantitative measurement of cell activation.

First: O=C(O)c1ccc(CCC2CCN(C(=O)COc3ccccc3-c3ccccc3)CC2)cc1 [Compound 110]
Second: O=C(COc1ccccc1-c1ccccc1)N1CCC(CCc2ccc(OC(F)(F)F)cc2)CC1 [Compound 115]
The IC50 of the first is higher: 10 to 50 µM for the first, 1 to 10 µM for the second. The second is the more potent here.

`CCCC(Oc1ccccc1-c1ccccc1)C(=O)N1CCC(CCc2ccc(OC)c(OC)c2)CC1` (stereo not drawn) [Compound 145] and `COc1ccc(CCC2CCN(C(=O)COc3ccccc3-c3ccccc3)CC2)cc1OC` [Compound 109] fall in the same range of IC50: 1 to 10 µM for the first, 1 to 10 µM for the second.

`O=C(COc1cc(F)c(F)cc1-c1ccccc1)N1CCC(CCc2cc(F)cc(F)c2)CC1` [Compound 143] and `O=C(COc1c(F)cccc1-c1ccccc1)N1CCC(CCc2cc(F)cc(F)c2)CC1` [Compound 135] fall in the same range of IC50: 10 to 50 µM for the first, 10 to 50 µM for the second.

`O=C(COc1ccccc1-c1ccccc1)N1CCC(CCc2ccc(N3CCOCC3)cc2)CC1` [Compound 112] and `Cc1ccc(F)cc1CCC1CCN(C(=O)COc2ccccc2-c2ccccc2)CC1` [Compound 113] fall in the same range of IC50: 1 to 10 µM for the first, 1 to 10 µM for the second.

Compared with `COc1ccc(CCC2CCN(C(=O)COc3cc(F)c(F)cc3-c3ccccc3)CC2)cc1OC` [Compound 142], `O=C(COc1ccccc1-c1ccccc1)N1CCC(CCc2cc(F)ccc2F)CC1` [Compound 123] is higher in IC50: 1 to 10 µM for the first, 10 to 50 µM for the second. The first is the more potent here.

Compared with `O=C(COc1ccccc1-c1ccccc1)N1CCC(CCc2ccccc2OC(F)(F)F)CC1` [Compound 122], `O=C(NCc1ccncc1)c1ccc(CCC2CCN(C(=O)COc3ccccc3-c3ccccc3)CC2)cc1` [Compound 104] is lower in IC50: 10 to 50 µM for the first, 1 to 10 µM for the second. The second is the more potent here.
